Measurements reported in patent US20240158348A1, “HERBICIDAL CYCLIC AMIDES N-SUBSTITUTED WITH A HALOALKYLSULFONYLANILIDE GROUP” (FMC Corporation, priority 2021, published 2024).

What was measured:
Format in all cases: in vivo
soybean (Glycine max) = assay: Test C preemergence, soybean; conditions: 0 is no effect, 100 is complete control
Procedure, shortened: (§1)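 Steps: sow in loam soil blended with sand; treat soil preemergence by directed spray, or treat young plants (2–10 cm, one to two leaves) postemergence; hold in greenhouse 10 or 12 days; rate injury visually relative to untreated controls on a 0–100 scale.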

[1] = test system: horseweed (Erigeron canadensis); assay: Test C postemergence, horseweed; conditions: for Horseweed plant response rating: 31 g ai/ha Postemergence, visual injury, 0 to 100 scale (0 no effect, 100 complete control); for Plant response rating (0 to 100 scale), Horseweed: 125 g ai/ha Postemergence, 0 is no effect, 100 is complete control
Procedure, shortened: as §1

corn (Zea mays) [2] = assay: Test C postemergence, corn; conditions: for Corn plant response rating: 31 g ai/ha Postemergence, visual injury, 0 to 100 scale (0 no effect, 100 complete control); for Plant response rating (0 to 100 scale), Corn: 125 g ai/ha Postemergence, 0 is no effect, 100 is complete control
corn (Zea mays) [3] = assay: Test C preemergence, corn; conditions: 0 is no effect, 100 is complete control
Procedure, shortened: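 Visual injury rating, 0 (no effect) to 100 (complete control), versus untreated controls after 10 or 12 days in the greenhouse. Compounds were formulated in non-phytotoxic solvent plus surfactant and applied either as a directed soil spray at sowing or onto emerged one- to two-leaf plants.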

[4] = test system: ragweed (common ragweed, Ambrosia artemisiifolia); assay: Test C postemergence, ragweed; conditions: for Ragweed plant response rating: visual injury, 0 to 100 scale (0 no effect, 100 complete control); for Plant response rating (0 to 100 scale), Ragweed: 0 is no effect, 100 is complete control
Procedure, shortened: as §1

kochia (Bassia scoparia) = assay: Test C preemergence, kochia; conditions: 0 is no effect, 100 is complete control
Procedure, shortened: as §1

[5] = test system: blackgrass (Alopecurus myosuroides); assay: Test C preemergence, blackgrass; conditions: 0 is no effect, 100 is complete control
Procedure, shortened: as §1

[6] = test system: oat, wild (wild oat, Avena fatua); assay: Test C postemergence, wild oat; conditions: for Oat, Wild plant response rating: 31 g ai/ha Postemergence, visual injury, 0 to 100 scale (0 no effect, 100 complete control); for Plant response rating (0 to 100 scale), Oat, Wild: 125 g ai/ha Postemergence, 0 is no effect, 100 is complete control

| Compound | Plant response rating (0 to 100 scale), Soybean (soybean (Glycine max); 31 g ai/ha Preemergence) | Plant response rating (0 to 100 scale), Soybean (soybean (Glycine max); 125 g ai/ha Preemergence) | Horseweed plant response rating [1] | Plant response rating (0 to 100 scale), Horseweed [1] | Corn plant response rating (corn (Zea mays) [2]) | Plant response rating (0 to 100 scale), Corn (corn (Zea mays) [2]) | Plant response rating (0 to 100 scale), Corn (corn (Zea mays) [3]; 31 g ai/ha Preemergence) | Plant response rating (0 to 100 scale), Corn (corn (Zea mays) [3]; 125 g ai/ha Preemergence) | Ragweed plant response rating ([4]; 31 g ai/ha Postemergence) | Plant response rating (0 to 100 scale), Ragweed ([4]; 125 g ai/ha Postemergence) | Plant response rating (0 to 100 scale), Kochia (kochia (Bassia scoparia); 31 g ai/ha Preemergence) | Plant response rating (0 to 100 scale), Kochia (kochia (Bassia scoparia); 125 g ai/ha Preemergence) | Plant response rating (0 to 100 scale), Blackgrass ([5]; 31 g ai/ha Preemergence) | Plant response rating (0 to 100 scale), Blackgrass ([5]; 125 g ai/ha Preemergence) | Oat, Wild plant response rating [6] | Plant response rating (0 to 100 scale), Oat, Wild [6] | Ragweed plant response rating ([4]; 125 g ai/ha Postemergence) |
| --- | --- | --- | --- | --- | --- | --- | --- | --- | --- | --- | --- | --- | --- | --- | --- | --- | --- |
| C=CCO/N=C1\CCN(c2cc(NS(=O)(=O)C(F)(F)F)c(C)cc2C)C1=O [Compound 11] | 50 | 90 | 20 | 70 | 90 | 100 | 50 | 100 | 60 | 80 | 80 | 100 | 60 | 100 |  |  |  |
| CCO/N=C1\CCN(c2cc(NS(=O)(=O)C(F)(F)F)c(C)cc2C)C1=O [Compound 12, N-[5-[3-(ethoxyimino)-2-oxo-1-pyrrolidinyl]-2,4-dimethylphenyl]-1,1,1-trifluoromethanesulfonamide] | 90 | 100 | 90 | 100 | 100 | 100 | 70 | 100 | 90 | 90 | 100 | 100 | 80 | 100 | 90 | 90 |  |
| C#CCO/N=C1\CCN(c2cc(NS(=O)(=O)C(F)(F)F)c(C)cc2C)C1=O [Compound 13, N-[2,4-dimethyl-5-[2-oxo-3-[(2-propyn-1-yloxy)imino]-1-pyrrolidinyl]phenyl]-1,1,1-trifluoromethanesulfonamide] | 80 | 100 | 70 | 90 | 100 | 100 | 40 | 100 | 80 | 90 | 100 | 100 | 90 | 100 | 90 | 90 |  |
| Cc1cc(C)c(N2CCC(O)C2=O)cc1NS(=O)(=O)C(F)(F)F (stereo not shown) [Compound 14] | 100 | 100 | 90 | 90 | 70 | 90 | 10 | 100 | 60 | 80 | 50 | 100 | 60 | 90 | 30 | 60 |  |
| COC(=O)N(c1cc(N2CCC(OC3CC3)C2=O)c(C)cc1C)S(=O)(=O)C(F)(F)F (stereo not shown) [Compound 16] | 20 | 20 | 0 | 30 | 0 | 0 | 0 | 0 | 80 | 90 | 0 | 0 | 0 | 0 | 0 | 0 |  |
| CC(=O)N(c1cc(N2CCC(OC3CC3)C2=O)c(C)cc1C)S(=O)(=O)C(F)(F)F (stereo not shown) [Compound 17] | 80 | 100 | 70 | 100 | 90 | 90 | 70 | 90 | 70 | 90 | 80 | 100 | 80 | 90 | 30 | 70 |  |
| CCOC(=O)N(c1cc(N2CCC(OC3CC3)C2=O)c(C)cc1C)S(=O)(=O)C(F)(F)F (stereo not shown) [Compound 19] | 30 | 90 | 10 | 30 | 0 | 20 | 0 | 0 | 60 | 90 | 0 | 70 | 0 | 40 | 0 | 30 |  |
| Cc1cc(C)c(N(C(=O)OCC(C)C)S(=O)(=O)C(F)(F)F)cc1N1CCC(OC2CC2)C1=O (stereo not shown) [Compound 21] | 0 | 60 | 60 | 90 | 90 | 90 | 20 | 90 | 80 | 90 | 60 | 90 | 10 | 80 | 40 | 70 |  |
| Cc1c(NS(=O)(=O)C(F)(F)F)cc(N2CCC(OC3CC3)C2=O)c(C)c1F (stereo not shown) [Compound 26] | 70 | 90 |  |  | 50 | 90 | 60 | 90 | 60 |  | 100 | 100 | 70 | 90 | 20 | 50 | 80 |
| Cc1c(N2CCC(OC3CCC3)C2=O)cc(N(COC(=O)C(C)(C)C)S(=O)(=O)C(F)(F)F)c(C)c1F (stereo not shown) [Compound 28] | 20 | 80 |  |  | 10 | 30 | 0 | 20 | 80 |  | 20 | 90 | 50 | 60 | 20 | 30 | 80 |
